Data: US20110070211A1 (priority 2009, published 2011)

Tested on: DU-145 cells
Format: cell-based, Human

For C=C1[C@@H](C)[C@H]2[C@H](Cc3ccccc3)NC(=O)[C@]23[C@H](OC(C)=O)/C=C/[C@@](C)(O)C(=O)[C@@H](C)C/C=C/[C@H]3[C@@H]1O [Cytochalasin-D], the “Effect on cell migration” value was “did not migrate”, the “Relative Wound Density at 24 Hours, Mean” value was 3.3 ± 0.2 and the “Relative Wound Density at 24 Hours, Percent Relative to Media” value was 4%.
